Values quoted from earlier work in US20220323439A1, “URACIL DERMAL PHARMACEUTICAL FORMULATION” (NANOMETICS LLC (D.B.A PHD BIOSCIENCES), priority 2019, published 2022).

Conditions: oral uracil 500 mg/m^2

O=c1cc[nH]c(=O)[nH]1 [uracil, Uracil]
Cmax of uracil after oral administration: 20000 ng/mL
